Patent US20160031937A1, “NEURAL REGENERATION PEPTIDES AND USES THEREFOR” (CURONZ HOLDINGS COMPANY LIMITED, priority 2013, published 2016)
Like-named read-outs stand apart in the source and are kept apart here. Square brackets hold non-standard residues; d marks the D form. Ends that are not written are not given here. Aib = CC(C)(N)C(=O)O

Tested on: human W9-hESCs
Assay type: cell-based
Conditions: for reduction in LDH detected cell death: first 4 hours; for decrease of delayed injury (LDH): between removal of OGD at 4 hours and 24 hours
Method: Experiments with human embryonic stem cells (hESC) were carried out in accordance with the guidelines and regulations of the NHMRC and with the approval of the Austin Health Human Research Ethics Committee (Approval number H2008/03194), and University of Melbourne Human Research Ethics Committee (Approval number 0605017). H9 (WA-09, WiCell) cell lines were grown as previously described (Dottori & Pera, 2007).
Briefly, hESC were cultured on mitomycin-C treated mouse embryonic fibroblasts (MEFs) in hESC medium consisting of high-glucose Dulbecco's Modified Eagle Medium (DMEM) without sodium pyruvate, supplemented with 1% insulin/transferrin/selenium, 0.1 mM β-mercaptoethanol, 1% nonessential amino acids (NEAA), 2 mM glutamine, 25 U/ml penicillin, 25 μg/ml streptomycin (all from Invitrogen) and 20% fetal calf serum (FCS) (Hyclone).
Alternatively, hESC were cultured on mitomycin-C treated human foreskin fibroblasts (HFF; ATCC, CRL-2097) in KSR media consisting of DMEM/nutrient mixture F-12, supplemented with 0.1 mM […], 1% nonessential amino acids (NEAA), 2 mM glutamine, 25 U/ml penicillin, 25 μg/ml streptomycin and 20% knockout serum replacement (all from Invitrogen).
All cells were cultured at 37° C. in 5% CO2 with 100% humidity. Colonies were mechanically dissected every 7 days (subcultivated or passaged) and transferred to freshly prepared MEFs or HFFs. Media was changed every second day.
Neuronal differentiation was achieved using the noggin induction method described for mouse neurospheres as adapted by Dottori for human neurospheres (Dottori & Pera, 2007). The colonies were maintained at 37° C., with 5% CO2 in hESC medium supplemented with 500 ng/ml of Noggin for 14 days while replacing Noggin every other day.
At this point, the cells were washed with PBS and the colonies were again mechanically dissociated, but this time the central (differentiated) part of the colony was also cut into smaller pieces using a 26-gauge needle. The pieces were transferred to individual wells in a low adherent 96-well plate containing Neurobasal®A (NBM) (Invitrogen) supplemented with 1× X B-27® (Invitrogen) and 1× N-2 (Invitrogen) 20 ng/ml human recombinant EGF and 20 ng/ml human recombinant bFGF (Pharmacia). Media was changed every 2 to 3 days to allow neurosphere formation over 2 weeks.
In order to facilitate neuronal differentiation, neurospheres were again separated into smaller pieces under a dissection microscope, and three to four pieces were transferred to each well of a 96-well plate. Prior to this transfer, the plate was pre-coated with poly-D-lysine (10 μg/ml in PBS), washed in PBS, recoated with mouse laminin (5 μg/ml in PBS), and washed again. The cells were then grown for 11 days (with media changed every two days) in NBM lacking growth factors prior to induction of injury and assessment of hypothermia.
On the day of experiments, the medium was changed to NBM+N2 containing a B27 preparation lacking the usual antioxidants (Invitrogen; 10889-038) to eliminate their confounding effects (NBM-AO).
To maintain isoosmotic pressure conditions, 25 mM 2-deoxy-D-glucose was added to NBM-AO medium and equilibrated for 30 minutes at room temperature before the initial media change as described above. […] Culture supernatant was removed after this 4 hour period and stored at 4° C. until analysed for lactate dehydrogenase (LDH) activity.
The media was replaced with fresh NBM-AO and the cells were incubated for a further 20 hours containing drug, before again measuring LDH. Oxidative stress was induced by adding 50 μM fresh H2O2 (Sigma, H1009) to the growth factor negative NBM on initiation of the experiment with continued culture for 4 hours when LDH was measured and NBM-AO without H2O2 was returned to the culture which was maintained for a further 20 hours before again measuring LDH.

## Gly Arg Arg Ala Ala Pro Gly Arg Aib Gly Gly (GRRAAPGR[Aib]GG) [NRP2945, synthetic 11-mer peptidomimetic optimized for stability and pharmacokinetics]
100 fM NRP2945
  neuroprotective effects during OGD: did not show neuroprotective effects
4 hours of OGD injury, 100 pM NRP2945 plus 300 nM AMD3100
  decrease in LDH detected cell death in presence of CXCR4 inhibitor: abolished
AMD3100 experiment, 4 hours of OGD injury, 100 pM NRP2945 without inhibitor
  decrease in LDH detected cell death: 44%
AMD3100 experiment, OGD, 100 pM NRP2945 without inhibitor
  reduction of LDH release, net effect at 24 hours: 55%
OGD, 1 pM NRP2945 at injury induction
  reduction in LDH detected cell death: 23%
OGD, 10 pM NRP2945 at injury induction
  reduction in LDH detected cell death: 37%
OGD, 100 pM NRP2945 at injury induction
  reduction in LDH detected cell death: 43%
OGD, 1 pM NRP2945
  reduction of LDH release, net effect at 24 hours: 28%
OGD, 10 pM NRP2945
  reduction of LDH release, net effect at 24 hours: 44%
OGD, 100 pM NRP2945
  reduction of LDH release, net effect at 24 hours: 52%
OGD, 100 pM NRP2945 plus 300 nM AMD3100
  reduction of LDH release, net effect at 24 hours, in presence of CXCR4 inhibitor: blocked
OGD, 100 fM NRP2945
  reduction of LDH release, net effect at 24 hours: 17%
10 pM NRP2945
  decrease of delayed injury (LDH): 67%
100 pM NRP2945
  decrease of delayed injury (LDH): 79%
Repeat experiment, OGD, 10 pM NRP2945 during injury induction
  reduction in LDH detected cell death: 41%
Repeat experiment, OGD, 10 pM NRP2945 one hour after injury induction
  reduction in LDH detected cell death: 31%
Repeat experiment, OGD, 100 pM NRP2945 during injury induction
  reduction in LDH detected cell death: 47%
Repeat experiment, OGD, 100 pM NRP2945 one hour after injury induction
  reduction in LDH detected cell death: 34%
Repeat experiment, OGD, 10 pM NRP2945 added at 0 hours
  reduction of LDH release, net effect at 24 hours: 48%
Repeat experiment, OGD, 10 pM NRP2945 added at 1 hour
  reduction of LDH release, net effect at 24 hours: 36%
Repeat experiment, OGD, 10 pM NRP2945 added at 3 hours
  reduction of LDH release, net effect at 24 hours: 22%
Repeat experiment, OGD, 100 pM NRP2945 added at 0 hours
  reduction of LDH release, net effect at 24 hours: 54%
Repeat experiment, OGD, 100 pM NRP2945 added at 1 hour
  reduction of LDH release, net effect at 24 hours: 35%
Repeat experiment, OGD, 100 pM NRP2945 added at 3 hours
  reduction of LDH release, net effect at 24 hours: 22%
